Source: patent publication US7078395B1, “Methods for treating or preventing cancer by preventing, inhibiting or arresting cell cycling” (priority 1999, dated 2006)
Where “and” joins values, the source holds several entries; their conditions need not be identical. Identical values can stand only once.

How the values were obtained:
[1] = test system: breast tumour-derived fibroblasts; test: Morphology and cell number (Coulter counter) of fibroblasts; assay type: cell-based; conditions: 24 h
Description: For the culture of fibroblasts, resected breast tumour tissue was minced and incubated in EMEM for 18-24 h at 37° C. with collagenase (200 μg/ml). The dispersed cells were harvested by centrifugation and washed twice with medium to remove collagenase. Dispersed cells were seeded into culture flasks and grown to confluence before passaging on a weekly basis. For experimental purposes 12 well multi-well plates or 25 cm^2 flasks were seeded with fibroblasts and grown to 70-80% confluency. Cells were washed with PBS and exposed to drugs for 24 h before determining cell numbers using a Coulter counter.
Photomicrographs of control and treated cells were taken under normal conditions of light and exposure using an Olympus SL35 Type 12 camera under an Olympus CK2 microscope (×100 magnification).

[2] = test system: nitrosomethylurea-induced mammary tumours; test: Growth of NMU-induced mammary tumours in intact rats; assay type: in vivo, rat
Description: The effect of 2-MeOEMATE on mammary tumour growth was examined in a preliminary study using Ludwig rats (Harlan Olac, Bicester, UK) in which tumours were induced by inoculation of NMU. Tumour development was monitored regularly and when 0.5-1.0 cm^3 in volume, animals received vehicle (propylene glycol, 200 μl/day, p.o.), 2-MeOEMATE (20 mg/kg/day, p.o.) or 2-MeOE1 (20 mg/kg/day, p.o.) daily for an 11 day period. Tumour length and width was measured with callipers and tumour volumes calculated as described (21).

[3] = (18, 19); cited from earlier work

SMILES: COc1cc2c(cc1OS(N)(=O)=O)CCC1C2CC[C@]2(C)C(=O)CCC12 (stereo partly drawn) [2-MeOEMATE, 2-methoxyoestrone-3-O-sulphamate]
- effect on fibroblast morphology ([1]; 1 μM): little effect on cell morphology
- effect on fibroblast morphology ([1]; 5 μM): rounding of a significant proportion of fibroblasts
- effect on the number of fibroblasts [1]: did not reduce the number of fibroblasts
- reduction in tumour volume ([2]; 20 mg/kg/day, p.o., 11 days, individual animals): almost complete regression of ⅔ tumours and 8% and tumours regressed rapidly and were barely palpable and regressed almost completely
- regrowth of regressed tumours ([2]; monitored for a further 33 days after 11-day dosing): no regrowth of tumours was detected
- oestrogenicity [3]: devoid of oestrogenicity
